Target: ABCB1 (P-glycoprotein) (Homo sapiens, UniProt P08183)
Test: ABCB1 ATPase stimulation in plasma membrane vesicles
Assay type: biochemical

Chain of ABCB1 (P-glycoprotein) (P08183 whole entry): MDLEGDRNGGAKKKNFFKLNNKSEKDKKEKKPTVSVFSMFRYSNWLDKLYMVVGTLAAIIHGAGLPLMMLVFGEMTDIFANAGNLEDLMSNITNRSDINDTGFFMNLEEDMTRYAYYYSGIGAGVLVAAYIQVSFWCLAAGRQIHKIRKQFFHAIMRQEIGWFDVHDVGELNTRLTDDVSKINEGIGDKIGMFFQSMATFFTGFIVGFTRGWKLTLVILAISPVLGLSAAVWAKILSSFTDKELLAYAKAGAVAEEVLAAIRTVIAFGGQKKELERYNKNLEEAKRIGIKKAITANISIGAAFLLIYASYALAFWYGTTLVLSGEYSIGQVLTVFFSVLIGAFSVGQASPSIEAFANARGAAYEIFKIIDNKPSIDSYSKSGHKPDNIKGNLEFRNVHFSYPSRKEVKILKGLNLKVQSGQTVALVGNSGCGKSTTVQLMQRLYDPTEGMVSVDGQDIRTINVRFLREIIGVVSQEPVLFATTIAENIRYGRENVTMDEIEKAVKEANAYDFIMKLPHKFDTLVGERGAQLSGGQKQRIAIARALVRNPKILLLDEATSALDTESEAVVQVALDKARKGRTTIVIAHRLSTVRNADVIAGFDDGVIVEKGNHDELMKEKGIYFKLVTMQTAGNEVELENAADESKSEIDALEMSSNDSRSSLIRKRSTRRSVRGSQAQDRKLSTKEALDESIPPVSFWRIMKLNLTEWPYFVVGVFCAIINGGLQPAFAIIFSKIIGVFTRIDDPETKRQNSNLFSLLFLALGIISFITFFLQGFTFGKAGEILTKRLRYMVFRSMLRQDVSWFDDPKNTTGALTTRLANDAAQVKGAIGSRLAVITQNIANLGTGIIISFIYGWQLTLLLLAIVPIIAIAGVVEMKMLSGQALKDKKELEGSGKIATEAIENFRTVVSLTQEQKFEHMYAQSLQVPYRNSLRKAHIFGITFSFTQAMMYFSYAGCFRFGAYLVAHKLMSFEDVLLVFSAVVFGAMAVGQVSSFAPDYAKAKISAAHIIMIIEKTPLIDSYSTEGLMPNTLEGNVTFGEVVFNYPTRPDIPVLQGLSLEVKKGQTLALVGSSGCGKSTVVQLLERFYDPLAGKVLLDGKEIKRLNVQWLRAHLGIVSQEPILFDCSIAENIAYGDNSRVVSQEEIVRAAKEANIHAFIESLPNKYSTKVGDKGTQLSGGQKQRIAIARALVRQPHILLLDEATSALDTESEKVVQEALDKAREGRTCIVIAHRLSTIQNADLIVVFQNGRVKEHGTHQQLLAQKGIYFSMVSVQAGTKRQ

EC50: > 100 µM
Compound: [La+3].c1cnc2c(c1)ccc1cccnc12.c1cnc2c(c1)ccc1cccnc12.c1cnc2c(c1)ccc1cccnc12 [KP772, [tris(1,10-phenanthroline)lanthanum(III)] trithiocyanate]

— publication PMC3371634 (Biochemical pharmacology, 2007)
